Where only a bound is given, the exact number is not on record here.

The values that follow come from ChEMBL document CHEMBL1141966, “Novel triazole based inhibitors of Ras farnesyl transferase” (Bioorg Med Chem Lett, 2005).

In the test the target is Protein farnesyltransferase (Homo sapiens, UniProt P49354+P49356). In words: Inhibitory activity against K-Ras farnesyl transferase. In kind it is protein-complex assay.
One may read the IC50 as the point on the concentration scale where inhibition reaches its midpoint. Lower therefore signals greater potency. Take `N#Cc1ccc(Cn2cnnc2CN(Cc2ccc(F)cc2)C(=O)c2ccc3ccccc3n2)cc1`: the IC50 was determined as 5 nM.

For `N#Cc1ccc(Cn2cnnc2CN(CCc2ccc(Br)cc2)C(=O)c2cc3ccccc3s2)cc1`, it took 89.3 nM to reach half-maximal inhibition (IC50).

With `N#Cc1ccc(Cn2cnnc2CN(CCc2ccc(Br)cc2)C(=O)c2cc3ccccc3o2)cc1`, the IC50 was determined as 53.2 nM.

For the compound `N#Cc1ccc(Cn2cncc2CN(Cc2ccc(F)cc2F)C(=O)c2ccc3ccccc3n2)cc1`, inhibition was half-maximal at 187 nM (IC50).

The compound `N#Cc1ccc(Cn2cnnc2CN(CCc2ccc(Br)cc2)C(=O)c2ccco2)cc1` gave an IC50 of 99.3 nM.

Turning to `N#Cc1ccc(Cn2cnnc2CN(Cc2ccc(F)cc2F)C(=O)c2ccc3ccccc3c2)cc1`, the IC50 turned out to be 2.2 nM.

`COc1cc(C(=O)N(CCc2ccc(Br)cc2)Cc2nncn2Cc2ccc(C#N)cc2)nc2ccccc12` displayed an IC50 of 96.5 nM.

In the case of `N#Cc1ccc(Cn2cnnc2CN(CCc2ccc(Br)cc2)C(=O)c2ccc3ccccc3c2)cc1`, the half-maximal inhibitory concentration (IC50) came to 28.3 nM.

In turn, `N#Cc1ccc(Cn2cnnc2CN(Cc2ccc([N+](=O)[O-])cc2)C(=O)c2ccc3ccccc3n2)cc1` returned an IC50 of 1.6 nM.

With `Cc1nnc(CN(Cc2ccc(F)cc2F)C(=O)c2ccc3ccccc3n2)n1Cc1ccc(C#N)cc1`, the IC50 amounted to 0.9 nM.

For the compound `N#Cc1ccc(Cn2nnnc2CN(Cc2ccc(F)cc2F)C(=O)c2ccc3ccccc3n2)cc1`, the IC50 was greater than 1000 nM.

On to `N#Cc1ccc(Cn2cnnc2CN(Cc2ccc(F)cc2F)C(=O)c2ccc3ccccc3n2)cc1`, for which inhibition was half-maximal at 3.5 nM (IC50).

For `N#Cc1ccc(Cn2cnnc2CN(CCc2ccc(Br)cc2)C(=O)c2ccc3ccccc3n2)cc1`, the midpoint of inhibition, the IC50, lay at 26 nM.

The compound `N#Cc1ccc(Cn2cnnc2CN(CCc2ccc(F)cc2)C(=O)c2ccc3ccccc3n2)cc1` gave an IC50 of 19 nM. The IC50 values of the last two compounds are within 1.5-fold of each other.

As for `COc1ccc(CCN(Cc2nncn2Cc2ccc(C#N)cc2)C(=O)c2ccc3ccccc3n2)cc1`, the IC50 turned out to be 75 nM.

As for `N#Cc1ccc(Cn2cnnc2CN(CCc2ccc(Br)cc2)C(=O)c2ccc3c(c2)OCO3)cc1`, the 50% inhibitory concentration (IC50) came to 61 nM.

Regarding `N#Cc1ccc(Cn2cnnc2CN(Cc2ccc(F)cc2F)C(=O)c2ccc3ccccc3n2)nc1`, it took 5.5 nM to reach half-maximal inhibition (IC50). Compared with the last compound, the IC50 is about 11-fold lower.

Consider `N#Cc1ccc(Cn2cnnc2CN(C(=O)c2ccc3ccccc3n2)c2ccc(Oc3ccccc3)cc2)cc1`, for which the IC50 was determined as 44 nM.
